# Assay: Heating of the separated supernatant in a thermostatic bath: separation into amine phase and aqueous phase
# Format: physicochemical
# From the text: The element 15 that separates the supernatant phase F into the aqueous phase H and the organic phase J and recovers the tertiary amine recovers the tertiary amine included in the supernatant phase F. As the element 15 that separates the supernatant phase F into the aqueous phase H and the organic phase J and recovers the tertiary amine, the mechanism of heating the supernatant phase F is preferable. For example, the supernatant phase F is stored in a second container, not shown, and the supernatant phase F is heated in the second container. As the temperature of the supernatant phase F is increased, the compatibility of the tertiary amine compounds of the embodiment with water changes, and supernatant phase F separates into the organic phase and the aqueous phase. The supernatant phase F separates into the aqueous phase H and the organic phase J at a higher temperature than the first mixture D which separates into the phases. It is preferable that the supernatant phase F is heated to a temperature higher than the temperature of the first mixture (the temperature at which the first mixture D is phase-separated (the temperature at which the supernatant phase F and the concentrated phase G are separated separately)). It is preferable that the supernatant phase F is heated to a temperature 5[° C.] or higher than the temperature of the first mixture D (the temperature at which the first mixture D is phase-separated (the temperature at which the supernatant phase F and the concentrated phase G are separated separately)). It is preferable that the supernatant phase F is heated to a temperature 10[° C.] or higher than the temperature of the first mixture D (the temperature at which the first mixture D is phase-separated (the temperature at which the supernatant phase F and the concentrated phase G are separated separately)). It is preferable that the supernatant phase F is heated to a temperature 20[° C.] or higher than the temperature of the first mixture D (the temperature at which the first mixture D is phase-separated (the temperature at which the supernatant phase F and the concentrated phase G are separated separately)). It is preferable that the supernatant phase F is heated to a temperature 20 [° C.] or higher than the temperature of the first mixture D. It is preferable that the supernatant phase F is heated to a temperature 30 [° C.] or higher than the temperature of the first mixture D (the temperature at which the first mixture D is phase-separated (the temperature at which the supernatant phase F and the concentrated phase G are separated separately)). The supernatant phase F is preferably heated to 35[° C.] or more and less than 90[° C.]. From the viewpoint of reducing energy consumption, it is more preferably that the supernatant phase F is heated to 35[° C.] or more and 75[° C.] or less. The supernatant phase F is preferably phase-separated at 35 [° C.] or more and less than 90[° C.]. From the viewpoint of reducing energy consumption, the supernatant phase F is more preferably phase-separated at 35[° C.] or more and less than 90[° C.]. It is preferable to use waste heat generated at a plant or the like to heat the supernatant phase F.
# When the separated supernatant solution is heated in a thermostatic bath at 70[° C.], it is separated into an amine phase and an aqueous phase. When the amine phase is separated and used for the same test, the salt removal rate of 97.5 [%] is obtained, and the concentration of the lower phase being separated of 21.2 [wt %] is obtained, which is the similar results as in the first test.
# [1] = supernatant of the S/F 4.0 test
# [2] = supernatant of the S/F 6.0 test
# [3] = supernatant of the S/F 7.0 test
# [4] = supernatant of the S/F 10.0 test
Separating Temperature Water/Amine [1] [°C],Separating Temperature Water/Amine [2] [°C],Separating Temperature Water/Amine [3] [°C],Separating Temperature Water/Amine [4] [°C],Compound
70,70,60,70,C1CCN(CCCN2CCCC2)C1 [chemical formula (1-2)]
70,70,50,70,CCOC(=O)N1CCN(CCCN2CCN(C(=O)OCC)CC2)CC1 [chemical formula (2-1)]
